Source: US7105524B2, “Pesticidal and parasiticidal di-and trifluorosubstituted alkene compounds” (BASF Aktiengesellschaft, priority 2001, dated 2006)

Legend:
[1] = tested on: root-knot nematode Meloidogyne incognita; test: Soil nematicide assay targeting root-knot nematode Meloidogyne incognita on tomato (soil drench); type: in vivo; settings: tomato plants, one month after inoculation with 1000 J2 larvae
Excerpt: Soil nematicide assay targeting root-knot nematode Meloidogyne incognita on tomato The test compounds were solubilized in acetone and diluted with water and surfactant to the required test concentrations. The test solution was applied as a soil drench to transplanted tomato plants in cells with sandy loam mixed with sand. One thousand root-knot J2 larvae were applied as an aqueous suspension drenched on the soil surface. The plants were maintained in the greenhouse and, one month after inoculation, the plant roots were washed free of soil. The root-knot galls on the root system of each plant were counted. Treatments were replicated three times. Percent control of root-knot was calculated for the treated plants relative to control plants treated with the acetone-surfactant carrier using the following formula: % control of root knot galls=100×((median number of galls on control plants−median number of galls on treated plants)/median number of galls on control plants) In this test, compound A which is known from EP-A 1 000 946 as example 1 acted as comparison active ingredient.

[2] = tested on: root-knot nematode Meloidogyne sp; test: Soil nematicide assay targeting root-knot nematode Meloidogyne sp on tomato (granular formulation); type: in vivo; settings: 1 kg/ha, granular formulation of 5% active ingredient on gypsum carrier, infested soil, tomato plants, visual estimation
Description: Soil nematicide assay targeting root-knot nematode Meloidogyne sp on tomato
The test compounds were applied as granular formulations of 5% active ingredient on a gypsum carrier to soil infested with root-knot nematodes. Tomato plants were transplanted into the soil. After galling developed in untreated control plants, tomato plants were harvested and the roots assessed for root knot galling. Based on visual estimation, the percentage of the tomato root-mass that was galled was determined. Percent control root-knot was calculated for the treated plants relative to untreated control plants using the following formula: % control of root knot galling=100×((galling level of untreated plants−galling level of treated plants)/galling level of untreated plants)
In this test, compound A which is known from EP-A 1 000 946 as example 1 acted as comparison active ingredient.

**Q.** How did the “% control of root knot galls” value ([1]; 0.16 kg/ha) turn out when FC(F)=C(F)CCSc1nc2ncccc2s1 [compound A] was run?
**A.** 13%

**Q.** And the “% control of root knot galls” value ([1]; 0.63 kg/ha)?
**A.** 71%

**Q.** What about the “% control of root knot galling” value [2] of the same compound?
**A.** 25%

**Q.** Which “% control of root knot galls” value ([1]; 0.16 kg/ha) does the source give for FC(F)=C(F)CCSc1nc2cccnc2s1 [I.1—1, 2-(3,4,4-Trifluoro-but-3-enylsulfanyl)-thiazolo[5,4-b]pyridine] here?
**A.** 94%

**Q.** What about the “% control of root knot galls” value ([1]; 0.63 kg/ha) of the same compound?
**A.** 100%

**Q.** What about the “% control of root knot galling” value [2] of the same compound?
**A.** 47%
